Literature values in patent US6660719B2, “Inhibiting T-Cell proliferation” (BioCryst Pharmaceuticals Inc., priority 2001, dated 2003).
Like-named read-outs stand apart in the source and are kept apart here.

Assays:
[1] = test system: peripheral blood lymphocytes; details: given to rats with 2′-deoxyguanosine
[2] = test system: peripheral blood lymphocytes; details: given to dogs with 2′-deoxyguanosine
T-cells = details: rats; given with 2′-deoxyguanosine
[3] = test system: peripheral blood lymphocytes; details: 2′-deoxyguanosine alone, without PNP inhibition; species not given
CCRF-CEM cells = details: given with 2′-deoxyguanosine
Molt-4 cells = details: given with 2′-deoxyguanosine

Nc1nc2c(nc(N)n2[C@@H]2O[C@H](CO)[C@@H](O)[C@H]2O)c(=O)[nH]1 [8-Aminoguanosine]
peripheral blood lymphocytes [1]: profound fall | peripheral blood lymphocytes [2]: profound fall | levels of 2′-deoxyguanosine triphosphate (dGTP) in T-cells (T-cells): increased levels

Nc1nc2c(ncn2[C@H]2C[C@H](O)[C@@H](CO)O2)c(=O)[nH]1 [2′-deoxyguanosine]
cell counts (lymphopenia) [3]: did not significantly decrease cell counts

Nc1nc2nc(N)[nH]c2c(=O)[nH]1 [8-Aminoguanine]
proliferation of human T-cells in cultures (CCRF-CEM cells): inhibits the proliferation | proliferation of human T-cells in cultures (Molt-4 cells): inhibits the proliferation
